Test results published in patent publication US20230095021A1, “MODULATORS OF TDP-43” (Alteron Therapeutics, Inc., priority 2019, published 2023).

Assays:
TDP43-His = target: T1, TDP43-His (Homo sapiens, UniProt Q13148); test: Expression of histidine-tagged TDP-43 in E. coli whole cell lysates; format: cell-based; conditions: 60 μM ALT-59 with 2 μg/ml PMBN, 0.5 mM IPTG, Rosetta (DE3) cells, Coomassie stain
T1 construct: made in house; host or cells: E. coli Rosetta (DE3), vector pRETb/TDP43-His; protein not purified, read in whole cell lysate
T1 sequence (Q13148 whole entry): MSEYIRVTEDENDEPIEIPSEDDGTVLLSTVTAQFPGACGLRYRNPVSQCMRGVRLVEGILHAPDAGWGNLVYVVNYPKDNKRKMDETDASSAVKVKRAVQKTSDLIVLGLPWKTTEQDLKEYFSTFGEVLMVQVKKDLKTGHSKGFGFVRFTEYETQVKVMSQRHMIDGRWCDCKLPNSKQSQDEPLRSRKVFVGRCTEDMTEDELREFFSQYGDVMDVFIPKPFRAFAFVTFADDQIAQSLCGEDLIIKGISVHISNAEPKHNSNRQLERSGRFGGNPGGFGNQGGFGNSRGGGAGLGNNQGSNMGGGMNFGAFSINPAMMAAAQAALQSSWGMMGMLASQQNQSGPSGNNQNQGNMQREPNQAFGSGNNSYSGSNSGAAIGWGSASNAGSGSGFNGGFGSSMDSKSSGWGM
Method: Rosetta (DE3) cells were transformed with pRETb/TDP43-His according manufacture's instruction. After the culture from a single colony reached O.D 0.6 with shaking at 37° C. for 5 hours, it was split into six equal cultures and treated as indicated in FIG. 3. (Lane 1) un-induced blank; (Lane 2) 0.5 mM IPTG, 60 μM DMSO; (Lane 3) 0.5 mM IPTG, 60 μM ALT-59; (Lane 4) 0.5 mM IPTG, 2 μg/ml PMBN; (Lane 5) 0.5 mM IPTG, 2 μg/ml PMBN, 30 μM ALT-59; (Lane 6) 0.5 mM IPTG, 2 μg/ml PMBN, 60 μM ALT-59. Cells were cultured overnight at 25° C. on a shaker and then collected, sonicated in protein sample buffer and boiled before loading on a 10% SDS-PAGE gel. Protein were visualized by Coomassie Brilliant Blue stain.

CFTR [1] = test: CFTR protein levels, Western blot in U-87 MG cells; format: cell-based
Method: Additional experiments were performed to determine how ALT-59 treatment affects CFTR protein levels. U-87 MG cells were maintained at 37° C. in a CO2 incubator in Dulbecco's Modified Eagle's Medium (DMEM) supplemented with 10% fetal bovine serum (FBS) and 1% of penicillin/streptomycin (Invitrogen), and were treated with DMSO, 3 μM, or 6 μM ALT-59. Cells were lysed using RIPA buffer (25 mM Tris, pH 7.4, 150 mM NaCl, 0.1% SDS, 0.5% sodium deoxycholate, 1% Triton X-100, Complete protease inhibitor cocktail). Western blotting was performed using anti-CFTR (Novus Biologicals) and anti-beta-actin (Sigma-Aldrich) antibodies. Images were obtained using Odyssey imager and quantified using the Odyssey software (LI-COR).

Tau = Tau expression, Western blot in U-87 MG cells; format: cell-based; conditions: 2 days
Method: (§1) U-87 MG and T98G cells were maintained at 37° C. in a CO2 incubator in Dulbecco's Modified Eagle's Medium (DMEM) supplemented with 10% fetal bovine serum (FBS) and 1% of penicillin/streptomycin (Invitrogen). Cells were treated with DMSO, 3 μM, or 6 μM ALT-59 for 2 days and subjected to Western blotting analysis using the indicated antibodies. Protein bands were quantified using the ImageJ software.

LAMP2 pre-mRNA = LAMP2 pre-mRNA alternative splicing, RT-PCR; format: cell-based; conditions: MDA-MB-231 cells, 6 μM ALT-59
Method: (§2) Long stretches of TG repeats are found in exon 9 and intron 9 of Lamp2 gene. A shorter stretch is located in intron 10. […] RT-PCR analysis was performed to test if ALT-59 treatment affects LAMP2 alternative splicing. MDA-MB-231 cells were cultured as described above and treated with DMSO or 6 μM ALT-59. Total RNA was extracted using the RNeasy Mini Kit (Qiagen) and equal amount of RNA was reverse transcribed using the SuperScript III First-Strand Synthesis System (Invitrogen). PCR reactions were performed using forward primer located on exon 1 and a reverse primer located on exon 11. PCR samples were resolved in a 1.2% agarose gel and stained with ethidium bromide.

ApoA2 pre-mRNA = ApoA2 pre-mRNA splicing, RT-PCR; format: cell-based; conditions: MDA-MB-231 cells, endogenous gene
Method: as §2
It has been reported that TDP-43 causes CFTR exon 9 skipping, ApoA2 exon 3 skipping, and POLDIP3 exon 3 inclusion. Additional experiments were performed to further confirm that TDP-43 is the target of ALT-59. RT-PCR analysis was performed as described above using the following primers for the three genes. PCR samples were analyzed by polyacrylamide gel electrophoresis and stained with ethidium bromide.

CFTR [2] = test: CFTR localization, immunofluorescence microscopy, U-87 MG cells; format: cell-based; conditions: 4 μM, 3 days
Method: MDA-MB-231 and U-87 MG cells were cultured on cover slips under the conditions as described above. Cells were treated with DMSO or 4 μM ALT-59 for 3 days. Primary human bronchial epithelial cells isolated from cystic fibrosis patient homozygous for Phe508del-CFTR (Lifeline Cell Technology) were cultured on cover slips in BronchiaLife Cell Culture Medium supplemented with BrochiaLife LifeFactors Kit (Lifeline Cell Technology) and maintained at 37° C. in a CO2 incubator. Cells were treated with DMSO, 4 μM ALT-59, 2 μM ALT-308, or 4 μM ALT-410 for 3 days.
Cells were fixed in 4% paraformaldehyde for 15 minutes and permeabilized in 0.1% Triton X-100 for 2 minutes. After being blocked in 5% BSA (Sigma-Aldrich), cells were incubated with anti-CFTR antibody (Alomone Labs) followed by Alexa Fluor 488 anti-rabbit secondary antibody. Reagents were buffered in GIBCO PBS (Phosphate-Buffered Saline). Images were taken using Carl Zeiss LSM 510 Laser Scanning Microscope. Parameters were set identical for all images.

His-Sumo-TDP43 = target: T2, His-Sumo-TDP43 (Homo sapiens, UniProt Q13148); test: Binding of His-Sumo-TDP43 to TG12-biotin, streptavidin bead pull-down and Western blot
T2 construct: made in house; host or cells: E. coli Rosetta (DE3), vector pSumo/TDP43, Ni-NTA purified
T2 sequence (Q13148 whole entry): as above
Method: Additional experiments were performed to confirm the direct binding of ALT-59 to TDP-43. One microgram of purified His-Sumo-TDP43 was incubated with 1 μg TG12-biotin ([…]-biotin (SEQ ID NO: 1)) in binding buffer containing 20 mM HEPES, pH 7.5, 0.3% CHAPS, 150 mM NaCl, (Sigma-Aldrich), and protease inhibitor cocktail (Roche) for 4 hours on ice in the presence of carrier (50% Cremophor EL, 50% absolute ethanol) or 30 μM ALT-59 dissolved in carrier. Streptavidin magnetic beads (20 μl settled beads, GE Healthcare Life Sciences) were added to pull down the DNA-protein complex by rotating at 4° C. for 2 hours. After being washed 5 times with binding buffer, samples were boiled in protein sample buffer. In another experiment, DNA-protein complex bound to Streptavidin magnetic beads were washed and split into three parts, two of which were incubated with either carrier or ALT-59 for 4 hours with rotation at 4° C. to elute TDP-43 from TG12-biotin-streptavidin. The third part and elutes were mixed with protein sample buffer and boiled. Protein samples from the above experiments were loaded onto 4-20% Tris-glycine gel (Invitrogen) for fractionation. Western blotting was performed using anti-TDP-43 antibody (Proteintech Group).

BACE1 = BACE1 expression, Western blot in T98G cells; format: cell-based; conditions: 2 days
Method: as §1

CN(C)c1ccc(C2Nc3ccc4ccccc4c3C3=C2C(=O)CC(C)(C)C3)cc1Br (stereo not shown) [ALT-59, 5-(3-bromo-4-(dimethylamino)phenyl)-2,2-dimethyl-2,3,5,6-tetrahydrobenzo[a]phenanthridin-4(1H)-one]
TDP43-His protein expression (TDP43-His): increased protein expression
increase of CFTR300 level (CFTR [1]; 3 μM): 10 fold
level of CFTR160 (CFTR [1]; 3 μM): did not affect
increase of CFTR160 level (CFTR [1]; 6 μM): 30%
increase of CFTR240 level (CFTR [1]; 6 μM): 3 fold
increase of CFTR300 level (CFTR [1]; 6 μM): 18 fold
reduction of Tau expression (Tau; 3 μM): 52%
reduction of Tau expression (Tau; 6 μM): 38%
level of LAMP2a mRNA (LAMP2 pre-mRNA): reduces the level of LAMP2a mRNA
level of LAMP2c mRNA (LAMP2 pre-mRNA): increases the level of LAMP2c mRNA
ApoA2 splicing (ApoA2 pre-mRNA): blocking ApoA2 splicing
CFTR localization (CFTR [2]): redistribution of CFTR from the perinuclear region to the plasma membrane
binding of TDP-43 to TG12 (His-Sumo-TDP43; 30 μM ALT-59 in carrier, 4 hours on ice): can block the binding of TDP-43 to TG12
elution of TDP-43 from the TDP43-TG12 complex (His-Sumo-TDP43; preformed DNA-protein complex on streptavidin beads, 4 hours at 4° C.): capable of displacing TG12 from the TDP43-TG12 complex
reduction of BACE1 expression (BACE1; 3 μM): 31%
reduction of BACE1 expression (BACE1; 6 μM): 53%
